Values of other authors, collected in patent US8986418B1, “Method and system for agricultural fertigation” (priority 2008, dated 2015).
Read-outs that look alike come from different tables or passages of the source.

Structure (SMILES)	Solubility with anion CO3^−2	Solubility with anion CO3^−2 (listed as Fe^+3)	Solubility with anion Cl	Solubility with anion HCO3^−	Solubility with anion HCO3^− (listed as Fe^+3)	Solubility with anion NO3^−	Solubility with anion OH^−	Solubility with anion OH^− (listed as Fe^+3)	Solubility with anion PO4^−3	Solubility with anion SO4^−2	Solubility with anion S^−2
[Fe+2] [Fe^+2]	VSS (VSS means very slightly soluble (20-2,000 ppm))	I (I means insoluble (<20 ppm))	S (S means soluble (over 5,000 ppm))	SS (SS means slightly soluble (2,000 to 5,000 ppm))	I (I means insoluble (<20 ppm))	S (S means soluble (over 5,000 ppm))	VSS (VSS means very slightly soluble (20-2,000 ppm))	I (I means insoluble (<20 ppm))	I (I means insoluble (<20 ppm))	S (S means soluble (over 5,000 ppm))	I (I means insoluble (<20 ppm))
[H+] [H^+]	CO2	–	S (S means soluble (over 5,000 ppm))	S (S means soluble (over 5,000 ppm))	–	S (S means soluble (over 5,000 ppm))	–	–	S (S means soluble (over 5,000 ppm))	S (S means soluble (over 5,000 ppm))	–
[K+] [K^+]	S (S means soluble (over 5,000 ppm))	–	S (S means soluble (over 5,000 ppm))	S (S means soluble (over 5,000 ppm))	–	S (S means soluble (over 5,000 ppm))	S (S means soluble (over 5,000 ppm))	–	S (S means soluble (over 5,000 ppm))	S (S means soluble (over 5,000 ppm))	S (S means soluble (over 5,000 ppm))
[Mg+2] [Mg^+2]	VSS (VSS means very slightly soluble (20-2,000 ppm))	–	S (S means soluble (over 5,000 ppm))	S (S means soluble (over 5,000 ppm))	–	S (S means soluble (over 5,000 ppm))	I (I means insoluble (<20 ppm))	–	I (I means insoluble (<20 ppm))	S (S means soluble (over 5,000 ppm))	–
[Mn+2] [Mn^+2]	I (I means insoluble (<20 ppm))	–	S (S means soluble (over 5,000 ppm))	–	–	S (S means soluble (over 5,000 ppm))	I (I means insoluble (<20 ppm))	–	I (I means insoluble (<20 ppm))	S (S means soluble (over 5,000 ppm))	I (I means insoluble (<20 ppm))
